According to US20070049564A1 (Wyeth, priority 2005, published 2007):
In brackets after ≈: the same amount, converted by molar mass. Like-named read-outs stand apart in the source and are kept apart here.

Legend:
c. albicans GC 3066 = assay: MIC, broth microdilution
S. aureus GC 6467 = assay: MIC, broth microdilution; conditions: Staphylococcus aureus
E. coli GC 4559 = assay: MIC, broth microdilution; conditions: Escherichia coli
S. epidermidis GC 4935 = assay: MIC, broth microdilution; conditions: Staphylococcus epidermidis
E. coli GC 6465 = assay: MIC, broth microdilution; conditions: Escherichia coli
S. aureus GC 1131 = assay: MIC, broth microdilution; conditions: Staphylococcus aureus
E. coli GC 1073 = assay: MIC, broth microdilution; conditions: Escherichia coli
S. typhimurium GC 2172 = assay: MIC, broth microdilution; conditions: Salmonella enterica, TYPHIMURIUM
S. agalactiae GC 4564 = assay: MIC, broth microdilution; conditions: Streptococcus agalactiae
S. pneumoniae+ GC 4465 = assay: MIC, broth microdilution; conditions: Streptococcus pneumoniae
E. faecalis GC 4555 = assay: MIC, broth microdilution; conditions: Enterococcus faecalis
S. aureus GC 1079 = assay: MIC, broth microdilution; conditions: Staphylococcus aureus
S. aureus GC 4536 = assay: MIC, broth microdilution; conditions: Staphylococcus aureus
E. faecalis GC 2242 = assay: MIC, broth microdilution; conditions: Enterococcus faecalis
S. pneumoniae* GC 4465 = assay: MIC, broth microdilution; conditions: Streptococcus pneumoniae
Staph. aureus Smith = assay: In vivo activity (oral, iv; ED50) against Staph. aureus Smith in mice
E. faecalis GC 2267 = assay: MIC, broth microdilution; conditions: Enterococcus faecalis
E. coli GC 2272 = assay: MIC, broth microdilution; conditions: Escherichia coli
E. coli GC 2235 = assay: MIC, broth microdilution; conditions: Escherichia coli
E. coli GC 4560 = assay: MIC, broth microdilution; conditions: Escherichia coli
[1] = read-out: MINIMAL INHIBITORY CONCENTRATION MIC, Human Serum
[2] = read-out: MINIMAL INHIBITORY CONCENTRATION MIC, Mouse Serum
[3] = read-out: MINIMAL INHIBITORY CONCENTRATION MIC, Water

MIC (c. albicans GC 3066; Candida albicans, GC3066, read-out: MINIMAL INHIBITORY CONCENTRATION MIC): > 64 µg/mL | MINIMAL INHIBITORY CONCENTRATION MIC (c. albicans GC 3066; Human Serum): >64 UG/ML | MINIMAL INHIBITORY CONCENTRATION MIC (c. albicans GC 3066; Mouse Serum): >64 UG/ML | MIC (S. aureus GC 6467; GC6467, read-out: MINIMAL INHIBITORY CONCENTRATION MIC, Human Serum): 0.5 µg/mL (≈ 0.648 µM) | MIC (S. aureus GC 6467; GC6467, read-out: MINIMAL INHIBITORY CONCENTRATION MIC, Mouse Serum): 1 µg/mL (≈ 1.3 µM) | MIC (S. aureus GC 6467; GC6467, read-out: MINIMAL INHIBITORY CONCENTRATION MIC, Water): 2 µg/mL (≈ 2.59 µM) | MIC (E. coli GC 4559; GC4559, read-out: MINIMAL INHIBITORY CONCENTRATION MIC, Human Serum): 32 µg/mL (≈ 41.5 µM) | MIC (E. coli GC 4559; GC4559, read-out: MINIMAL INHIBITORY CONCENTRATION MIC, Mouse Serum): 0.25 µg/mL (≈ 0.324 µM) | MIC (E. coli GC 4559; GC4559, read-out: MINIMAL INHIBITORY CONCENTRATION MIC, Water): > 64 µg/mL | MIC (S. epidermidis GC 4935; GC4935, read-out: MINIMAL INHIBITORY CONCENTRATION MIC, Human Serum): 0.5 µg/mL (≈ 0.648 µM) | MIC (S. epidermidis GC 4935; GC4935, read-out: MINIMAL INHIBITORY CONCENTRATION MIC, Mouse Serum): 0.5 µg/mL (≈ 0.648 µM) | MIC (S. epidermidis GC 4935; GC4935, read-out: MINIMAL INHIBITORY CONCENTRATION MIC, Water): 1 µg/mL (≈ 1.3 µM) | MIC (E. coli GC 6465; GC6465, read-out: MINIMAL INHIBITORY CONCENTRATION MIC, Human Serum): > 64 µg/mL | MIC (E. coli GC 6465; GC6465, read-out: MINIMAL INHIBITORY CONCENTRATION MIC, Mouse Serum): 2 µg/mL (≈ 2.59 µM) | MIC (E. coli GC 6465; GC6465, read-out: MINIMAL INHIBITORY CONCENTRATION MIC, Water): > 64 µg/mL | MIC (S. aureus GC 1131; GC1131, read-out: MINIMAL INHIBITORY CONCENTRATION MIC, Human Serum): 0.25 µg/mL (≈ 0.324 µM) | MIC (S. aureus GC 1131; GC1131, read-out: MINIMAL INHIBITORY CONCENTRATION MIC, Mouse Serum): 0.25 µg/mL (≈ 0.324 µM) | MIC (S. aureus GC 1131; GC1131, read-out: MINIMAL INHIBITORY CONCENTRATION MIC, Water): 0.25 µg/mL (≈ 0.324 µM) | MIC (E. coli GC 1073; GC1073, read-out: MINIMAL INHIBITORY CONCENTRATION MIC, Human Serum): 32 µg/mL (≈ 41.5 µM) | MIC (E. coli GC 1073; GC1073, read-out: MINIMAL INHIBITORY CONCENTRATION MIC, Mouse Serum): 0.5 µg/mL (≈ 0.648 µM) | MIC (E. coli GC 1073; GC1073, read-out: MINIMAL INHIBITORY CONCENTRATION MIC, Water): 64 µg/mL (≈ 82.9 µM) | MIC (S. typhimurium GC 2172; [1]): > 64 µg/mL | MIC (S. typhimurium GC 2172; [2]): 4 µg/mL (≈ 5.18 µM) | MIC (S. typhimurium GC 2172; [3]): > 64 µg/mL | MIC (S. agalactiae GC 4564; GC4564, read-out: MINIMAL INHIBITORY CONCENTRATION MIC, Human Serum): 0.12 µg/mL (≈ 0.155 µM) | MIC (S. agalactiae GC 4564; GC4564, read-out: MINIMAL INHIBITORY CONCENTRATION MIC, Mouse Serum): 0.12 µg/mL (≈ 0.155 µM) | MIC (S. agalactiae GC 4564; GC4564, read-out: MINIMAL INHIBITORY CONCENTRATION MIC, Water): 0.12 µg/mL (≈ 0.155 µM) | MIC (S. pneumoniae+ GC 4465; [1]): 0.25 µg/mL (≈ 0.324 µM) | MIC (S. pneumoniae+ GC 4465; [2]): 0.25 µg/mL (≈ 0.324 µM) | MIC (S. pneumoniae+ GC 4465; [3]): 0.25 µg/mL (≈ 0.324 µM) | MIC (E. faecalis GC 4555; GC4555, read-out: MINIMAL INHIBITORY CONCENTRATION MIC, Human Serum): 4 µg/mL (≈ 5.18 µM) | MIC (E. faecalis GC 4555; GC4555, read-out: MINIMAL INHIBITORY CONCENTRATION MIC, Mouse Serum): 0.12 µg/mL (≈ 0.155 µM) | MIC (E. faecalis GC 4555; GC4555, read-out: MINIMAL INHIBITORY CONCENTRATION MIC, Water): 2 µg/mL (≈ 2.59 µM) | MIC (S. aureus GC 1079; GC1079, read-out: MINIMAL INHIBITORY CONCENTRATION MIC, Human Serum): 0.25 µg/mL (≈ 0.324 µM) | MIC (S. aureus GC 1079; GC1079, read-out: MINIMAL INHIBITORY CONCENTRATION MIC, Mouse Serum): 0.25 µg/mL (≈ 0.324 µM) | MIC (S. aureus GC 1079; GC1079, read-out: MINIMAL INHIBITORY CONCENTRATION MIC, Water): 1 µg/mL (≈ 1.3 µM) | MIC (S. aureus GC 4536; GC4536, read-out: MINIMAL INHIBITORY CONCENTRATION MIC, Human Serum): 0.25 µg/mL (≈ 0.324 µM) | MIC (S. aureus GC 4536; GC4536, read-out: MINIMAL INHIBITORY CONCENTRATION MIC, Mouse Serum): 0.25 µg/mL (≈ 0.324 µM) | MIC (S. aureus GC 4536; GC4536, read-out: MINIMAL INHIBITORY CONCENTRATION MIC, Water): 0.25 µg/mL (≈ 0.324 µM) | MIC (E. faecalis GC 2242; GC2242, read-out: MINIMAL INHIBITORY CONCENTRATION MIC, Human Serum): 1 µg/mL (≈ 1.3 µM) | MIC (E. faecalis GC 2242; GC2242, read-out: MINIMAL INHIBITORY CONCENTRATION MIC, Mouse Serum): 0.5 µg/mL (≈ 0.648 µM) | MIC (E. faecalis GC 2242; GC2242, read-out: MINIMAL INHIBITORY CONCENTRATION MIC, Water): 1 µg/mL (≈ 1.3 µM) | MIC (S. pneumoniae* GC 4465; [1]): 0.12 µg/mL (≈ 0.155 µM) | MIC (S. pneumoniae* GC 4465; [2]): 0.12 µg/mL (≈ 0.155 µM) | MIC (S. pneumoniae* GC 4465; [3]): 0.12 µg/mL (≈ 0.155 µM) | MIC (E. faecalis GC 2267; GC2267, read-out: MINIMAL INHIBITORY CONCENTRATION MIC, Human Serum): 1 µg/mL (≈ 1.3 µM) | MIC (E. faecalis GC 2267; GC2267, read-out: MINIMAL INHIBITORY CONCENTRATION MIC, Mouse Serum): 0.5 µg/mL (≈ 0.648 µM) | MIC (E. faecalis GC 2267; GC2267, read-out: MINIMAL INHIBITORY CONCENTRATION MIC, Water): 2 µg/mL (≈ 2.59 µM) | MIC (E. coli GC 2272; GC2272, read-out: MINIMAL INHIBITORY CONCENTRATION MIC, Human Serum): 8 µg/mL (≈ 10.4 µM) | MIC (E. coli GC 2272; GC2272, read-out: MINIMAL INHIBITORY CONCENTRATION MIC, Mouse Serum): 0.25 µg/mL (≈ 0.324 µM) | MIC (E. coli GC 2272; GC2272, read-out: MINIMAL INHIBITORY CONCENTRATION MIC, Water): 64 µg/mL (≈ 82.9 µM) | MIC (E. coli GC 2235; GC2235, read-out: MINIMAL INHIBITORY CONCENTRATION MIC, Human Serum): 16 µg/mL (≈ 20.7 µM) | MIC (E. coli GC 2235; GC2235, read-out: MINIMAL INHIBITORY CONCENTRATION MIC, Mouse Serum): 0.25 µg/mL (≈ 0.324 µM) | MIC (E. coli GC 2235; GC2235, read-out: MINIMAL INHIBITORY CONCENTRATION MIC, Water): 32 µg/mL (≈ 41.5 µM) | MIC (E. coli GC 4560; GC4560, read-out: MINIMAL INHIBITORY CONCENTRATION MIC, Human Serum): 1 µg/mL (≈ 1.3 µM) | MIC (E. coli GC 4560; GC4560, read-out: MINIMAL INHIBITORY CONCENTRATION MIC, Mouse Serum): 0.12 µg/mL (≈ 0.155 µM) | MIC (E. coli GC 4560; GC4560, read-out: MINIMAL INHIBITORY CONCENTRATION MIC, Water): 2 µg/mL (≈ 2.59 µM)
Structure (SMILES): CCCCCCC(=O)OCOC(=O)N(CC(=O)Nc1cc(N(C)C)c2c(c1O)C(=O)C1=C(O)[C@]3(O)C(=O)C(C(N)=O)=C(O)[C@@H](N(C)C)[C@@H]3C[C@@H]1C2)C(C)(C)C [Example 48, ({[(2-{[(5aR,6aS,7S,10aS)-9-(aminocarbonyl)-4,7-bis(dimethylamino)-1,8,10a,11-tetrahydroxy-10,12-dioxo-5,5a,6,6a,7,10,10a,12-octahydrotetracen-2-yl]amino}-2-oxoethyl)(tert-butyl)amino]carbonyl}oxy)methyl heptanoate]
ED50 (Staph. aureus Smith; Staphylococcus aureus, in Mus musculus, iv, read-out: ED50 SIV (Staph aureus Smith)): 1.1 mg/kg | ED50 (Staph. aureus Smith; Staphylococcus aureus, in Mus musculus, po, read-out: ED50 SOD (Staph aureus Smith)): 10.1 mg/kg | ED50 (Staph. aureus Smith; Staphylococcus aureus, in Mus musculus, po, read-out: ED50 Staph Smith SOD): 10.1 mg/kg | ED50 (Staph. aureus Smith; iv, read-out: ED50 Staph Smith SIV): 1.1 mg/kg
